Assay results as given in PMC6324813, “Biological evaluation of isoflavonoids from Genista halacsyi using estrogen-target cells: Activities of glucosides compared to aglycones” (PLoS ONE, 2019).
Like-named read-outs stand apart in the source and are kept apart here.

Key:
[1] = tested on: MDA-MB-231 cells; assay: MDA-MB-231 cell proliferation (MTT); assay type: cell-based; conditions: 0.1 nM estradiol, 1 μM ICI182,780, isoflavonoids 1 μM
Protocol: Test compound effects on the proliferation of MCF-7 and MDA-MB-231 cells were assessed as previously described. […] Relative numbers of cells exposed to estradiol or to ICI182,780 acted as positive and negative control, respectively.

[2] = tested on: MCF-7 cells; assay: MCF-7 cell proliferation (MTT); assay type: cell-based, human; conditions: for activation at 1 µM: Homo sapiens, MCF7, 72 h, read-out: Induction of cell proliferation (MCF-7 cells) Agonism at 1μΜ (% of 0.1nM E2)
Protocol: Test compound effects on the proliferation of MCF-7 and MDA-MB-231 cells were assessed as previously described.

[3] = tested on: Ishikawa cells; assay: Induction of AlkP expression in Ishikawa cells; assay type: cell-based, human; conditions: for Induction of Alkaline Phosphatase Expression (Ishikawa cells) AUC (%): % of AUC of luciferase response of archetypal 3, 4, 5 or 8 up to 0.3, 10, 1.0 and 3.0 μM; for EC (25% of 0.1 nM E2 effect) / activation at 1 µM / EC50: Homo sapiens, Ishikawa; for EC (25% of 0.1 nM E2 effect): concentration required to achieve 25% of the effect of 0.1 nM E2, read-out: Induction of Alkaline Phosphatase Expression (Ishikawa cells) EC25E2; for activation at 1 µM: read-out: Induction of AlkP expression (Ishikawa cells) Agonism at 1μΜ (% of 0.1nM E2); for EC50: concentration required to achieve 50% of the effect of 0.1 nM E2, read-out: Induction of Alkaline Phosphatase Expression (Ishikawa cells) EC50E2; for Ratio of AUC (AlkP / Lucif): AUCAlkP / AUCluciferase
Protocol: Induction of AlkP expression of Ishikawa cells is considered as a reliable in vitro measure of estrogenic activity. Assessment of AlkP expression in Ishikawa cells was carried as already described. Briefly, the cells were plated in 96-well plates at a density of 12,000 cells per well in phenol-red-free MEM supplemented with 1 μg/mL insulin and 5% DCC-FBS. […] Data on the dependence of AlkP activity on isoflavonoid concentration were curve fitted using SigmaPlot10 (SPSS Inc) and the numerical data of curve fitting were used to determine AUC as described above, using for the calculation of AUC of a particular AlkP response the very same concentration used for the respective luciferase response. The AUC of AlkP responses of the isoflavonoids of a group were expressed as % of the AUC of the luciferase response of the respective archetypal isoflavone.

[4] = target: T1, ERα (Homo sapiens, UniProt P03372); assay: ERE-dependent luciferase gene transcription in MCF-7:D5L cells; assay type: cell-based; parameters: MCF-7:D5L cells, a clone of MCF-7 cells stably transfected with an Estrogen Response Element (ERE)-endowed reporter plasmid; endogenous in cells; host or cells: MCF-7:D5L (MCF-7 clone carrying pERE-Gl-Luciferase); conditions: for Induction of ERE-dependent Luciferase Transcription (MCF-7:D5L cells) AUC (%): % of AUC of luciferase response of archetypal 3, 4, 5 or 8 up to 0.3, 10, 1.0 and 3.0 μM; for Induction of luciferase gene transcription through ERα, MCF-7:D5L cells, Agonism at 1μΜ (% of 0.1nM E2): estradiol 0.1 nM; for Induction of ERE-dependent Luciferase Transcription (MCF-7:D5L cells) EC25E2: concentration required to achieve 25% of the effect of 0.1 nM E2; for EC50: concentration required to achieve 50% of the effect of 0.1 nM E2, read-out: Induction of ERE-dependent Luciferase Transcription (MCF-7:D5L cells) EC50E2
T1 sequence (P03372 1-595): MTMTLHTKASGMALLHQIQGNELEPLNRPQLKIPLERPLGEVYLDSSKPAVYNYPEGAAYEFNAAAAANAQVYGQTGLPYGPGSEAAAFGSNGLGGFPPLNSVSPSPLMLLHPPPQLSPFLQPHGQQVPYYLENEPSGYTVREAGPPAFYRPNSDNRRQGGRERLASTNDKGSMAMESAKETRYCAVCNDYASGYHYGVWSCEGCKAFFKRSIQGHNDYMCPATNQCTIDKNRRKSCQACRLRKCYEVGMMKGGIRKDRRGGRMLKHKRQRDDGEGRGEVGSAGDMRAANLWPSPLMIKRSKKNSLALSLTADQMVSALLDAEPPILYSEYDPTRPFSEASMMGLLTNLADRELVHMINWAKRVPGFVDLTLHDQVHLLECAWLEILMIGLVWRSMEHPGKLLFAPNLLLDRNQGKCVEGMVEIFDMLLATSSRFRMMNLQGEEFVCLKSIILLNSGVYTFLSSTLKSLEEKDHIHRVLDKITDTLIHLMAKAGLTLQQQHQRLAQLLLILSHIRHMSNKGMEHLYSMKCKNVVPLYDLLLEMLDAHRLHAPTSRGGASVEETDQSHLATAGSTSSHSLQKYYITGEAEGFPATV
Protocol: (§1) Assessment of ER/ERE-dependent luciferase gene transcription in MCF-7:D5L (express ERα) and HEK:ERβ cells (express ERβ) and determination of ER transcriptional agonism was carried as already described. Briefly, the cells were plated in 96-well plates at a density of 12,000 cells per well in phenol-red-free MEM (MCF-7:D5L cells) or phenol-red-free DMEM (HEK:ERβ cells) supplemented with 1 μg/mL insulin and 5% DCC-FBS. […] The AUC of the isoflavonoids of each group were then expressed as % of the AUC of the respective archetypal isoflavone. Since AUC data combine the efficacy as well as the potency of cell response into a single parameter, the %AUC data were considered here as a more reliable measure of relative ER/ERE-dependent luciferase expression of the test compounds.

[5] = target: T2, ERβ (Homo sapiens, UniProt Q92731); parameters: purchased Invitrogen; conditions: cited from earlier work
T2 sequence (Q92731 whole entry): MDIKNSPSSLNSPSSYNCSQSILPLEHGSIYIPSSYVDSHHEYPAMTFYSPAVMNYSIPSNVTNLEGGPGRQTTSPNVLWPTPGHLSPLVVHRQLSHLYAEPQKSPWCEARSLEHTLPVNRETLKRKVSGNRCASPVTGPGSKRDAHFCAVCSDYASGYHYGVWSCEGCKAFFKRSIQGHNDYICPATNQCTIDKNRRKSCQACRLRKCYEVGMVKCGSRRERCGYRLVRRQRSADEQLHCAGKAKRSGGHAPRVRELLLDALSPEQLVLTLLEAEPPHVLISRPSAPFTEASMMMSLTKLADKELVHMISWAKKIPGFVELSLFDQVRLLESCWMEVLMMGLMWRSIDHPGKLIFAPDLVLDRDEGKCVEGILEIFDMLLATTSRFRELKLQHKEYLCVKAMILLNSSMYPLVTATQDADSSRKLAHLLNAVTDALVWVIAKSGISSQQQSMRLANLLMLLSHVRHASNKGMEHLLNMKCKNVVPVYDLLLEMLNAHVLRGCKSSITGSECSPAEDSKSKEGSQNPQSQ

[6] = target: T1, ERα; parameters: purchased Invitrogen; conditions: cited from earlier work
[7] = target: T2, ERβ; assay: ERE-dependent luciferase gene transcription in HEK:ERβ cells; assay type: cell-based; parameters: expressed in transfected cells; host or cells: HEK-293 (HEK:ERβ clone, with pERE-tk-Luciferase)
Protocol: as §1

[8] = target: T2, ERβ; assay: ER binding competitor assay (fluorescent estrogen ES2), ERβ; parameters: purchased Invitrogen
[9] = tested on: TNFα mRNA; conditions: 1–10 μM, ER-independent; cited from earlier work
[10] = target: T1, ERα; assay: ER binding competitor assay (fluorescent estrogen ES2), ERα; parameters: purchased Invitrogen; conditions: RBA = (IC50 estradiol/IC50 compound) × 100; ES2 1 nM; estradiol set equal to 100
[11] = 1 μM ICI182,780, isoflavonoids 1 μM
[12] = isoflavonoids 1 μM, statistically significant effects

SMILES	activation at 1 µM [2] [%]	Induction of Alkaline Phosphatase Expression (Ishikawa cells) AUC (%) [3] [%]	EC (25% of 0.1 nM E2 effect) ([3]; 72 h) [µM]	activation at 1 µM ([3]; 72 h) [%]	EC50 [3] [nM]	Induction of ERE-dependent Luciferase Transcription (MCF-7:D5L cells) AUC (%) [4] [%]	Induction of luciferase gene transcription through ERα, MCF-7:D5L cells, Agonism at 1μΜ (% of 0.1nM E2) ([4]; compounds 1 μM, 18 h)	Induction of ERE-dependent Luciferase Transcription (MCF-7:D5L cells) EC25E2 [4] [nM]	mean value (and the range) of previously reported RBAβ [5]	mean value (and the range) of previously reported RBAα [6]	Ratio of AUC (AlkP / Lucif) [3]	EC50 [4] [nM]	other results
C[C@]12CC[C@@H]3c4ccc(O)cc4C[C@@H](CCCCCCCCC[S+]([O-])CCCC(F)(F)C(F)(F)F)[C@H]3[C@@H]1CC[C@@H]2O (stereo partly shown) [ICI182,780, reference compound]	–	–	–	–	–	–	–	–	–	–	–	–	proliferation of MDA-MB-231 cells [1]: not affected; suppression of isoflavonoid cell proliferation effects [2, 11]: fully suppressed; suppression of isoflavonoid-induced AlkP expression [3, 11]: fully suppressed
O=c1c(-c2ccc(O)cc2)coc2cc(O)ccc12 [Compound 5, daidzein]	59 ± 7	104±19	0.46 ± 0.05	54 ± 4	1300 ± 150	100±13	50 ± 12 (Partial) ^* % of 0.1nM E2	380 ± 70	0.65 (0.04–2.11)	0.20 (0.01–0.55)	–	–	ERα-dependent gene transcription agonist effect compared to the effect of 0.1 nM estradiol [4, 12]: lower than; RBAβ ([5]; estradiol = 100, ref 27 (Halabalaki et al.)): 0.36 ± 0.09; Induction of luciferase gene transcription through ERβ, HEK:ERβ cells, Agonism at 1μΜ (% of 0.1nM E2) ([7]; compounds 1 μM, estradiol 0.1 nM, 18 h): 84 ± 8 (Full) % of 0.1nM E2
COc1ccc(-c2coc3cc(O)cc(O)c3c2=O)cc1 [Compound 1, Biochanin A]	70 ± 10	26±2	0.19 ± 0.01	53 ± 9	420 ± 30	33±8	83 ± 16 (Full) % of 0.1nM E2	160 ± 90	0.69 (0.18–1.20)	0.18 (0.02–0.34)	0.79±0.04	300 ± 30	AlkP-inducing agonist effect compared to the effect of 0.1 nM estradiol [3, 12]: lower than; selectivity for ERβ (class of RBAβ/RBAα) [8]: moderate (3–10); RBAβ / RBAα ([5]; ERβ-binding selectivity, ref 51 (Fokialakis et al.)): 3.83; activation at 1 µM ([7]; 18 h, read-out: Induction of luciferase gene transcription through ERβ, HEK:ERβ cells, Agonism at 1μΜ (% of 0.1nM E2)): 31 ± 15%; ERβ-dependent gene transcription agonist effect compared to the effect of 0.1 nM estradiol [7, 12]: lower than
Oc1ccc(C2COc3cc(O)ccc3C2)cc1 (stereo not shown) [equol, 4',7-isoflavandiol]	–	–	–	–	–	–	–	–	–	–	–	–	suppression of LPS-induced TNFα mRNA expression and cytokine release [9]: dose-dependent suppression
O=c1c(-c2ccc(O)c(O)c2)coc2c(C3OC(CO)C(O)C(O)C3O)c(O)cc(O)c12 (stereo not shown) [Compound 9, 8-C-glucopyranosyl-orobol]	–	1.1±0.1	> 30	–	> 30000	1.6±0.3	–	>30000	–	–	0.69±0.07	> 30000	Induction of cell proliferation (MCF-7 cells) Agonism at 1μΜ, class ([2]; compounds 1 μM, 72 h): Marginal (⩽10%); AlkP response lower than ERα-transcriptional response (relative AUC ratios) [3]: ~ 30%; Induction of AlkP expression (Ishikawa cells) Agonism at 1μΜ, class ([3]; compounds 1 μM, 72 h): Marginal (⩽10%); RBAβ / RBAα ([8]; ERβ-binding selectivity): 0.45; RBAβ ([8]; RBA = (IC50 estradiol/IC50 compound) × 100, ES2 1 nM, estradiol set equal to 100): 0.05 ± 0.01; Induction of luciferase gene transcription, MCF-7:D5L cells, Agonism at 1μΜ, class ([4]; compounds 1 μM, 18 h): Marginal (⩽10%); RBAα [10]: 0.11 ± 0.03; Induction of luciferase gene transcription, HEK:ERβ cells, Agonism at 1μΜ, class ([7]; compounds 1 μM, 18 h): Marginal (⩽10%)
